Experimental findings from ChEMBL document CHEMBL4308882, “Synthesis, biological evaluation and molecular dynamic simulations of novel Benzofuran-tetrazole derivatives as potential agents against Alzheimer's disease” (2019) are described below.

As a reminder, the inhibition is the relative decrease from the control value, in per cent.

Test [1] deals with Caenorhabditis elegans. The experiment in a line: Protection against amyloid beta aggregation-induced paralysis in Caenorhabditis elegans CL4176 harboring temperature-inducible human amyloid beta transgene assessed as inhibition of paralysis at 1 mM pretreated for 48 hrs at 15 degC followed by heat stress stimulation to 25 degC for 35 hrs relative to control. It is filed as functional.

The test system of test [2] is Caenorhabditis elegans. The experiment in a line: Antialzheimer activity in Caenorhabditis elegans CL4176 harboring temperature-inducible human amyloid beta transgene assessed as reduction in amyloid beta aggregation at 1 mM pretreated for 48 hrs at 15 degC followed by heat stress stimulation to 25 degC for 35 hrs by thioflavin-s staining based microscopic analysis. The test is classed as functional, organism-based.

Test [3] concerns Caenorhabditis elegans. The experiment in a line: Antialzheimer activity in Caenorhabditis elegans […] harboring temperature-inducible human amyloid beta transgene assessed as reduction in AChE level at 1 mM pretreated for 48 hrs at 15 degC followed by heat stress stimulation to 25 degC for 35 hrs by amplex red assay. It is filed as functional, organism-based.

Active and inactive are the calls of the source. The rule behind the calls is not given here.

As for `CC(C)(C)n1nnnc1C(Nc1ccc(C(F)(F)F)c(Br)c1)c1cn(-c2ccccc2)nc1-c1cc2ccccc2o1` (stereo unspecified), the inhibition at 1000 µM in test [1] was found to be 63.8%. Further, the inhibition result in test [2] is “Active”.

For `Cc1ccc(NC(c2cn(-c3ccc(F)cc3)nc2-c2cc3ccccc3o2)c2nnnn2C(C)(C)C)cc1` (stereo unspecified), the inhibition at 1000 µM in test [1] is 42.1%. Moreover, the inhibition entry in test [2] is “Active”.

On to `CC(C)(C)n1nnnc1C(Nc1ccc(F)cc1)c1cn(-c2ccccc2)nc1-c1cc2ccccc2o1` (stereo unspecified), for which the result in test [3] was Active. For the same compound, the inhibition at 1000 µM in test [1] is 56.5%. Moreover, the inhibition result in test [2] was “Active”.

On to `COc1ccc(NC(c2cn(-c3ccccc3)nc2-c2oc3ccccc3c2C)c2nnnn2C(C)(C)C)cc1` (stereo unspecified), for which the outcome in test [3] was Active. Moreover, the inhibition at 1000 µM in test [1] came to 67.1%. Moreover, the inhibition result in test [2] was “Active”.

Regarding `Cc1ccc(NC(c2cn(-c3ccccc3)nc2-c2cc3ccccc3o2)c2nnnn2C(C)(C)C)cc1F` (stereo unspecified), the outcome in test [3] was Active. Further, in test [1], the inhibition at 1000 µM came to 45.4%. The inhibition entry in test [2] is “Active”.

As to `Cc1ccc(NC(c2cn(-c3ccc(Cl)cc3)nc2-c2oc3ccccc3c2C)c2nnnn2C(C)(C)C)cc1` (stereo unspecified), the outcome in test [3] was Active. Also, the inhibition at 1000 µM in test [1] is 46.7%. In addition, the inhibition result in test [2] was “Active”.
